# Measured values from patent US20260242391A1 (priority 2023, published 2026).
# How the values were obtained:
# HL-60 = HL-60 differentiation potency; type: cell-based; conditions: Homo sapiens
# in vitro = conditions: human
EC50 (HL-60),IC50 (in vitro),Structure (SMILES)
0.0523 µM,0.16 µM,"C[C@H]1[C@@H](Oc2ccc(CC(=O)NC(C)(C)C)cc2)O[C@@H]2O[C@@]3(C)CC[C@H]4[C@H](C)CC[C@@H]1[C@@]24OO3 [Compound 104, N-(tert-butyl)-2-(4-(((3R,5aS,6R,8aS, 9R,10S,12R, 12aR)-3,6,9-trimethyldeca-hydro-12H-3,12-epoxy[1,2]dioxepino[4,3-i]isochromen-10-yl)oxy)phenyl) acetamide]"
8.88 µM,> 20 µM,"C[C@H]1[C@@H](OCC2(C(=O)O)CCC2)O[C@@H]2O[C@@]3(C)CC[C@H]4[C@H](C)CC[C@@H]1[C@@]24OO3 [Compound 127, 1-((((3R,5aS,6R, 8aS,9R,10S,12R, 12aR)-3,6,9-trimethyldeca-hydro-12H-3,12-epoxy[1,2]dioxepino[4,3-i]isochromen-10-yl)oxy)methyl) cyclobutane-1-carboxylic acid]"
0.48 µM,> 20 µM,"C[C@H]1[C@@H](OCc2cccc(CC(=O)O)c2)O[C@@H]2O[C@@]3(C)CC[C@H]4[C@H](C)CC[C@@H]1[C@@]24OO3 [Compound 34, 2-(3-((((3R,5aS,6R, 8aS,9R,10S,12R, 12aR)-3,6,9-trimethyldeca-hydro-12H-3,12-epoxy[1,2]dioxepino[4,3-i]isochromen-10-yl)oxy)methyl)phenyl)acetic acid]"
0.217 µM,> 20 µM,"C[C@H]1[C@@H](Oc2ccc(C(=O)O)c(F)c2)O[C@H]2O[C@@]3(C)CC[C@H]4[C@H](C)CC[C@@H]1[C@@]24OO3 [Compound 25, 2-fluoro-4-(((3R,5aS,6R,8aS, 9R,10S,12S, 12aR)-3,6,9-trimethyldeca-hydro-12H-3,12-epoxy[1,2]dioxepino[4,3-i]isochromen-10-yl)oxy)benzoic acid]"
0.159 µM,16.5 µM,"C[C@H]1[C@@H](OC(C)(C)[C@H]2CC[C@@H](C(=O)O)CC2)O[C@@H]2O[C@@]3(C)CC[C@H]4[C@H](C)CC[C@@H]1[C@@]24OO3 [Compound 131, (1R,4s)-4-(2-(((3R,5aS,6R,8aS, 9R,10S,12R, 12aR)-3,6,9-trimethyldeca-hydro-12H-3,12-epoxy[1,2]dioxepino[4,3-i]isochromen-10-yl)oxy)propan-2-yl)cyclohexane-1-carboxylic acid]"
4.25 µM,> 20 µM,"C[C@H]1[C@@H](OC2C3CC(C(=O)O)CC32)O[C@@H]2O[C@@]3(C)CC[C@H]4[C@H](C)CC[C@@H]1[C@@]24OO3 (stereo partly drawn) [Compound 158, 6-(((3R,5aS,6R,8aS, 9R,10S,12R, 12aR)-3,6,9-trimethyldeca-hydro-12H-3,12-epoxy[1,2]dioxepino[4,3-i]isochromen-10-yl)oxy)bicyclo [3.1.0]hexane-3-carboxylic acid]"
3.38 µM,10.5 µM,"C[C@H]1[C@H](Oc2ccc(C(=O)C(=O)O)cc2)O[C@@H]2O[C@@]3(C)CC[C@H]4[C@H](C)CC[C@@H]1[C@@]24OO3 [Compound 129, 2-oxo-2-(4-(((3R,5aS,6R,8aS, 9R,10R,12R, 12aR)-3,6,9-trimethyldeca-hydro-12H-3,12-epoxy[1,2]dioxepino[4,3-i]isochromen-10-yl)oxy)phenyl) acetic acid]"
17.5 µM,> 20 µM,"C[C@H]1[C@H](OCc2cccc(C(=O)O)c2)O[C@@H]2O[C@@]3(C)CC[C@H]4[C@H](C)CC[C@@H]1[C@@]24OO3 [Compound 91, 3-((((3R,5aS,6R,8aS, 9R,10R,12R, 12aR)-3,6,9-trimethyldeca-hydro-12H-3,12-epoxy[1,2]dioxepino[4,3-i]isochromen-10-yl)oxy)methyl) benzoic acid]"
1.82 µM,> 20 µM,"C[C@H]1[C@@H](Oc2ccc(C(=O)NCC(=O)O)cc2)O[C@@H]2O[C@@]3(C)CC[C@H]4[C@H](C)CC[C@@H]1[C@@]24OO3 [Compound 142, (4-(((3R,5aS,6R,8aS, 9R,10S,12R, 12aR)-3,6,9-trimethyldeca-hydro-12H-3,12-epoxy[1,2]dioxepino[4,3-i]isochromen-10-yl)oxy)benzoyl) glycine]"
1.24 µM,> 20 µM,"C[C@H]1[C@@H](Oc2ccc(C(=O)N3CC(C(=O)O)C3)cc2)O[C@@H]2O[C@@]3(C)CC[C@H]4[C@H](C)CC[C@@H]1[C@@]24OO3 [Compound 149, 1-(4-(((3R,5aS,6R,8aS, 9R,10S,12R, 12aR)-3,6,9-trimethyldeca-hydro-12H-3,12-epoxy[1,2]dioxepino[4,3-i]isochromen-10-yl)oxy)benzoyl) azetidine-3-carboxylic acid]"
> 20 µM,> 20 µM,"C[C@H]1[C@@H](OCC(=O)N2CC[C@@H](C(=O)O)C2)O[C@@H]2O[C@@]3(C)CC[C@H]4[C@H](C)CC[C@@H]1[C@@]24OO3 [Compound 161, (R)-1-(2-(((3R,5aS,6R,8aS, 9R,10S,12R, 12aR)-3,6,9-trimethyldeca-hydro-12H-3,12-epoxy[1,2]dioxepino[4,3-i]isochromen-10-yl)oxy)acetyl) pyrrolidine-3-carboxylic acid]"
3.35 µM,14.4 µM,"C[C@H]1[C@@H](OC[C@H]2CC[C@@H](C(=O)O)N2C)O[C@@H]2O[C@@]3(C)CC[C@H]4[C@H](C)CC[C@@H]1[C@@]24OO3 [Compound 144, (2S,5R)-1-methyl-5-((((3R,5aS,6R,8aS, 9R,10S,12R, 12aR)-3,6,9-trimethyldeca-hydro-12H-3,12-epoxy[1,2]dioxepino[4,3-i]isochromen-10-yl)oxy)methyl) pyrrolidine-2-carboxylic acid]"
0.0732 µM,0.11 µM,"C[C@H]1[C@@H](OC(=O)Cn2ccc(C(F)(F)F)n2)O[C@@H]2O[C@@]3(C)CC[C@H]4[C@H](C)CC[C@@H]1[C@@]24OO3 [Compound 145, (3R,5aS,6R,8aS, 9R,10R,12R, 12aR)-3,6,9-trimethyldeca-hydro-12H-3,12-epoxy[1,2] dioxepino[4,3-i] isochromen-10-yl 2-(3-(trifluoro-methyl)-1H-pyrazol-1-yl)acetate]"
0.257 µM,0.315 µM,"C[C@H]1[C@H](NCCc2ccccc2)O[C@@H]2O[C@@]3(C)CC[C@H]4[C@H](C)CC[C@@H]1[C@@]24OO3 [Compound 94, (3R,5aS,6R,8aS, 9R,10R,12R, 12aR)-3,6,9-trimethyl-N-phenethyldeca-hydro-12H-3,12-epoxy[1,2] dioxepino[4,3-i] isochromen-10-amine]"
0.0924 µM,> 20 µM,"C[C@H]1[C@H](Oc2ccc(CC(=O)O)cc2)O[C@@H]2O[C@@]3(C)CC[C@H]4[C@H](C)CC[C@@H]1[C@@]24OO3 [Compound 12, 2-(4-(((3R,5aS, 6R,8aS,9R,10R, 12R,12aR)-3,6,9-trimethyldeca-hydro-12H-3,12-epoxy[1,2]dioxepino[4,3-i]isochromen-10-yl)oxy)phenyl) acetic acid]"
8.48 µM,> 20 µM,"C[C@H]1[C@@H](OCC(=O)N[C@H]2CC[C@@H](C(=O)O)C2)O[C@@H]2O[C@@]3(C)CC[C@H]4[C@H](C)CC[C@@H]1[C@@]24OO3 [Compound 152, (1R,3S)-3-(2-(((3R,5aS,6R, 8aS,9R,10S,12R, 12aR)-3,6,9-trimethyldeca-hydro-12H-3,12-epoxy[1,2]dioxepino[4,3-i]isochromen-10-yl)oxy)acetamido) cyclopentane-1-carboxylic acid]"
0.0669 µM,1.8 µM,"C[C@H]1[C@H](OCC#Cc2ccc(C(=O)O)cc2F)O[C@@H]2O[C@@]3(C)CC[C@H]4[C@H](C)CC[C@@H]1[C@@]24OO3 [Compound 166, 3-fluoro-4-(3-(((3R,5aS,6R,8aS, 9R,10R,12R, 12aR)-3,6,9-trimethyldeca-hydro-12H-3,12-epoxy[1,2]dioxepino[4,3-i]isochromen-10-yl)oxy)prop-1-yn-1-yl)benzoic acid]"
0.256 µM,0.446 µM,"C[C@H]1[C@H](NCCS(=O)(=O)C(F)(F)F)O[C@@H]2O[C@@]3(C)CC[C@H]4[C@H](C)CC[C@@H]1[C@@]24OO3 [Compound 28, (3R,5aS,6R,8aS, 9R,10R,12R, 12aR)-3,6,9-trimethyl-N-(2-((trifluoromethyl)sulfonyl)ethyl) decahydro-12H-3,12-epoxy[1,2] dioxepino[4,3-i] isochromen-10-amine]"
0.835 µM,1.31 µM,"C[C@H]1[C@H](NCc2ccccc2)O[C@@H]2O[C@@]3(C)CC[C@H]4[C@H](C)CC[C@@H]1[C@@]24OO3 [Compound 101, (3R,5aS,6R,8aS, 9R,10R,12R, 12aR)-N-benzyl-3,6,9-trimethyldeca-hydro-12H-3,12-epoxy[1,2] dioxepino[4,3-i] isochromen-10-amine]"
0.481 µM,> 20 µM,"COc1cc(CO[C@H]2O[C@@H]3O[C@@]4(C)CC[C@H]5[C@H](C)CC[C@@H]([C@H]2C)[C@@]35OO4)ccc1C(=O)O [Compound 35, 2-methoxy-4-((((3R,5aS,6R, 8aS,9R,10S,12R, 12aR)-3,6,9-trimethyldeca-hydro-12H-3,12-epoxy[1,2]dioxepino[4,3-i]isochromen-10-yl)oxy)methyl) benzoic acid]"
7.4 µM,> 20 µM,"C[C@H]1[C@@H](OCC23CC(C(=O)O)(C2)C3)O[C@@H]2O[C@@]3(C)CC[C@H]4[C@H](C)CC[C@@H]1[C@@]24OO3 [Compound 55, 3-((((3R,5aS,6R,8aS, 9R,10S,12R, 12aR)-3,6,9-trimethyldeca-hydro-12H-3,12-epoxy[1,2]dioxepino[4,3-i]isochromen-10-yl)oxy)methyl) bicyclo[1.1.1] pentane-1-carboxylic acid]"
0.113 µM,0.777 µM,"C[C@H]1[C@@H](Oc2ccc(CCCCC(=O)O)cc2)O[C@@H]2O[C@@]3(C)CC[C@H]4[C@H](C)CC[C@@H]1[C@@]24OO3 [Compound 72, 5-(4-(((3R,5aS, 6R,8aS,9R,10S, 12R,12aR)-3,6,9-trimethyldeca-hydro-12H-3,12-epoxy[1,2]dioxepino[4,3-i]isochromen-10-yl)oxy)phenyl) pentanoic acid]"
0.0124 µM,0.01 µM,"C[C@H]1[C@@H](Oc2ccc(CC(=O)OC(C)(C)C)cc2)O[C@@H]2O[C@@]3(C)CC[C@H]4[C@H](C)CC[C@@H]1[C@@]24OO3 [Compound 132, tert-butyl 2-(4-(((3R,5aS,6R,8aS, 9R,10S,12R, 12aR)-3,6,9-trimethyldeca-hydro-12H-3,12-epoxy[1,2]dioxepino[4,3-i]isochromen-10-yl)oxy)phenyl) acetate]"
